# Key:
# [1] = test system: MCAD patient fibroblast cell lines; test: Mitochondrial stress test (Seahorse), reserve capacity of MCAD patient fibroblasts; type: cell-based, human; conditions: MCAD fibroblasts, relative to vehicle treated control
# Description: Medium-chain acyl-CoA dehydrogenase (MCAD) deficiency is a condition in which the body's capacity to break down fats with medium chain lengths is impaired, caused by mutations in the ACADM gene, which can lead to hypoglycaemia, and liver dysfunction. Left untreated, it can lead to seizures, coma and other serious health problems, with acute symptoms often preceded by extended periods of fasting or an infection with vomiting. Impaired metabolism were observed through functional measurements of respiration using a Seahorse XF Analyzer, where oxygen consumption rate (OCR) reflects oxidative respiration.
# A study was performed to test the Rescue potential of S-acetyl-4′-phosphopantetheine in primary patient fibroblast model of MCAD deficiency. MCAD patient fibroblast cell lines (genotyped as containing homozygous K304E mutations in ACADM) were subject to a mitochondrial stress test according to standard protocol with a cell seeding density of 30 k cells/well (n=2). Rescue potential was assessed by increase in reserve capacity: defined as the difference between basal and maximal OCR, controlled by subtracting values for non-mitochondiral respiration (after rotenone treatment). The study was performed in two replicates.
# [2] = test system: primary human fibroblasts from healthy controls, MCAD deficiency and PA deficiency patients; test: Mitochondrial stress test (Seahorse), basal OCR of primary fibroblasts; type: cell-based; conditions: 24 h treatment
# Description: A study was thus performed to test the ability of S-acetyl-(S)-4′-phosphopantetheine to facilitate increased basal oxidative respiration in primary fibroblast cultures from patients diagnosed with MCAD deficiency and PA deficiency. Impaired metabolism were observed through functional measurements of respiration using a Seahorse XF Analyzer, where oxygen consumption rate (OCR) reflects oxidative respiration.
# Patient derived cell lines were subject to a mitochondrial stress test according to standard protocol with a cell seeding density of 30 k cells/well (n=2) in glucose free media. After incubation with various concentrations of S-acetyl-4′-phosphopantetheine or vehicle for 24 h, rescue potential was assessed by increase in basal OCR (average of six readings between 30-70 min), relative to control: basal OCR from vehicle treatment was set to 1.0. […] Experiment was performed in two replicates: systematically outlying values caused by seeding errors, port failures, or values within background were excluded from analysis.
# [3] = test system: RNAi knock-down of CG7461 drosophila; test: Drosophila model of VLCAD deficiency, survival in starvation; type: in vivo; conditions: 5 mM, fed for 24 h
# Description: (§1) The drosophila gene CG7461 is considered to be a good ortholog of ACADVL, as determined by Fly DIOPT (DRSC Integrative Ortholog Prediction Tool). RNAi approaches are an established method of modelling various diseases, and the GD stock library at the Vienna Drosophila Resource Centre (VDRC) contains a knock-down strain for CG7461 (VDRC ID 28028). Down-regulation of CG7461 by RNAi, results in reduced viability when metabolically challenged with starvation.
# Five virgin females from Act5C-GAL4 (RNAi expression driver line) and ten virgin males from UAS-GD 28028 (RNAi knock-down of CG7461) were crossed, to generate mutant progeny. In a similar manner, control flies were generated for the RNAi driver line (Gal4 control: Act5C-GAL4×GD 60000) and the upstream activating sequence (UAS control: UAS-GD 28028×Iso 31). From their offspring, 3-day old adult flies were allowed to feed for 24 h on glucose with and without 5 mM (S)-acetyl-4′-phosphopantetheine, then incubated on 2% agar medium without media. Dead flies were counted every 6 hours (up 90 hours) to obtain % survival over time. Rescue potential was assessed by the ability to survive in starvation conditions, expressed as the area under the curve (calculated by trapezium rule) of the cumulative frequency, relative to each control strain.
# [4] = test system: CG34404 down-regulated drosophila; type: in vivo
# Description: as §1, with “CG34404” for “CG7461”, “both MCCC1 and MCCC2,” for “ACADVL,”, “KK” for “GD”, “103335).” for “28028).”, “causes developmental delay.” for “results in reduced viability when metabolically challenged with starvation.”
# Five virgin females from UAS-KK 103335 (RNAi knock-down of CG34404) and ten virgin males from Act5C-GAL4 (heterozygous RNAi expression driver line with CyO balancer) were crossed, and allowed to lay for a period of 24 h in vials containing drosophila media with and without S-acetyl-4′-phosphopantetheine. Rescue potential was assessed by the number of eclosed male mutant or control flies every 6 h, as a percentage of total eclosed flies of each genotype, expressed as the AAUC (calculated by trapezium rule) of the cumulative eclosion relative to the control strain, as shown in FIG. 22A. Further, the region of relative AUCs are plotted in FIG. 22B under treatment conditions.
# [5] = test system: dPANK/fbl RNAi treated Drosophila S2 cells; test: dPANK/fbl RNA interference in Drosophila S2 cells, rescue by CoA or 4′-phosphopantetheine; type: cell-based; conditions: compound added to the medium; for histone (protein) acetylation of dPANK/fbl RNAi treated S2 cells: immunofluorescence
# Description: Drosophila S2 Cell Culture, RNA Interference, and CoA and 4′-phosphopantetheine treatment: Drosophila Schneider's S2 cells were maintained at 25° C. in Schneider's Drosophila medium (Invitrogen) supplemented with 10% heat inactivated fetal calf serum (Gibco) and antibiotics (penicillin/streptomycin, Invitrogen) under laboratory conditions. Synthesis of RNAi constructs and RNA interference (dsRNA) treatment was carried out as described previously (Siudeja K et al, EMBO Mol Med 3, 755-766 (2011)). Non-relevant (human gene; hMAZ) dsRNA was used as control. The cells were incubated for 4 days to induce an efficient knock-down. Cells were then subcultured, with or without CoA (Sigma-Aldrich, Cat. No: C4780—which is used for all the experiments wherever stated below) or 4′-phosphopantetheine (PPanSH) at different concentrations and were maintained for additional 3 days until analysis for rescue efficiency of the compounds was performed. The stock solutions of compounds were made in sterile water and stored in −20° C. until use.
# (§2) Drosophila S2 Cell Immunofluorescence Staining: For immunofluorescence Drosophila S2 cells were seeded on Poly-L-Lysine coated (Sigma-Aldrich) glass microscope slides and allowed to settle for 45 min. Cells were fixed with 3.7% formaldehyde (Sigma Aldrich) for 20 min, washed briefly with PBS+0.1% Triton-X-100 (Sigma Aldrich) and permeabilized with PBS+0.2% Triton-X-100 for 20 min. The slides were incubated in primary antibody (rabbit anti-AcLys, Cell Signaling Cat No: 9441, 1:500) to visualize histone acetylation levels in PBS+0.1% Triton-X-100 overnight and after an additional washing step in PBS+0.1% Triton-X-100 they were incubated in secondary goat anti-rabbit-Alexa488 antibody (Molecular Probes) for two hours at room temperature (RT). F-actin was detected with Rhodamin-Phalloidin (20 U/ml)(Invitrogen) and DNA by staining with DAPI (0.2 ug/ml) (Thermo Scientific). Finally the samples were mounted in 80% glycerol and analyzed using a Leica fluorescence microscope with Leica software. Adobe Photoshop and Illustrator (Adobe Systems Incorporated, San Jose, Calif., USA) were used for image assembly.
# Drosophila S2 cells = test: HoPan treatment of Drosophila S2 cells in combination with CoA or 4′-phosphopantetheine; type: cell-based; conditions: HoPan treated S2 cells
# Description: HoPan treatment of Drosophila S2 Cell in combination with CoA or 4′-phosphopantetheine treatment: Drosophila Schneider's S2 cells were maintained at standard conditions as explained above. Cells in the exponential phase of growth were used for all the experiments. Different indicated concentrations of CoA or 4′-phosphopantetheine (deuterium labelled PPanSH(D4) or unlabeled PPanSH) were added to S2 cells either in the presence or absence of 0.5 mM HoPan (Zhou Fang Pharm Chemical, China) for 48 h. Similarly, Drosophila S2 cells were treated with different concentrations of PPanSH(D4) at either 25° C. or 4° C. and cells were then harvested at various time points to access transport of PPanSH(D4). Stable isotope labelled PPanSH containing 4 deuterium atoms was purchased from Syncom (Groningen, The Netherlands) as a sodium salt (chemical structure is provided in FIG. 13A). As a read out cell count, intracellular total CoA and PPanSH levels (both labelled and unlabeled levels wherever appropriate) and histone acetylation levels were analyzed as explained below.
# as §2
# HEK293 cells = test: HoPan treatment of mammalian HEK293 cells in combination with CoA or 4′-phosphopantetheine; type: cell-based, human; conditions: HoPan treated HEK293 cells, compound added to the medium
# Description: HoPan treatment of mammalian HEK293 Cells in combination with CoA and 4′-phosphopantetheine treatment: HEK293 cells were maintained in dMEM (Invitrogen) supplemented with 10% fetal calf serum (Gibco) and antibiotics (penicillin/streptomycin, Invitrogen). For HoPan treatment, cells were cultured in custom made dMEM without vitamin B5 (Thermo Scientific) supplemented with dialyzed FCS (Thermo Scientific). CoA or PPanSH was added to HEK293 cells for the final concentration of 25 uM, either in the presence or absence of HoPan (0.5 mM) for 4 days, followed by analysis for phenotype and rescue efficiency of CoA and PPanSH.
# Western blot analysis and Antibodies: For Western blot analysis, cells were collected and washed with phosphate buffer saline (PBS), followed by centrifugation. The cells were lysed and sonicated in 1X Laemmli Sample Buffer and boiled for 5 min with 5% β-mercaptoethanol (Sigma). Protein content was determined using DC protein assay (BioRad). Equal amounts of protein were loaded on a 10 or 12.5% SDS-PAGE gel, transferred onto PVDF membranes and blocked with 5% milk in PBS/0.1% Tween, followed by overnight incubation with primary antibodies. The primary antibodies used were: rabbit-anti dPANK/fbl, 1:4000 Eurogentec custom made as described previously5, mouse anti-tubulin (Sigma Aldrich Cat no: T5168, 1:5000), anti-acetyl-Histone3 (Active Motif Cat no: 39139, 1:2000), anti GAPDH (Fitzgerald Cat no: 10R-G109a, 1:10000), rabbit anti COASY (Abcam Cat no: AB129012, 1:1000). Appropriate HRP-conjugated secondary antibodies (Amersham) were used and detection was performed using enhanced chemi-luminescence (Pierce cat nog: 32106) and Amersham hyperfilm (GE Healthcare). Band intensities were quantified with Image-studio software.
# [6] = Stability of CoA in PBS, medium and fetal calf serum by HPLC; conditions: formed from CoA in serum, time course of 6 hours
# Description: HPLC sample preparation protocol for total CoA and 4′-phosphopantetheine measurement: Samples were briefly washed with ice-cold PBS solution. Samples were sonicated thoroughly in 100 μl ice-cold PBS and centrifuged for 10-15 min at 4° C. to collect supernatant. Tris(2-carboxyethyl)phosphine hydrochloride (Sigma) (50 mM; 10 ul) was added to 50 μl sample supernatant and were incubated at room temperature for 15 min after vortex-mixing. Saturated ammonium sulfate solution or Millipore 3KD centrifugal filter units were used to remove proteins. The samples were centrifuged at 14,000 rpm for 15 min at 4° C. The clear supernatant (50 ul) or the filtrate was derivatized with 45 ul of ammonium 7-flurobenzo-2-oxa-1,3-doazole-4-sulfonate (SBD-F, Sigma) (1 mg/ml in borax buffer—0.1M containing 1 mM EDTA disodium, pH 9.5), and 5 ul ammonia solution (12.5% v/v, Merck Millipore) at 60° C. for 1 h. The derivatized samples were placed in a refrigerated autosampler (10° C.) in the Shimadzu HPLC system, and injected for total CoA and PPanSH analysis using optimized chromatographic separation conditions combined with fluorescence detection (described below).
# Chromatography separation condition: Chromatographic analysis was performed with a Shimadzu LC-10AC liquid chromatograph, SCL-10A system controller, SIL-10AC automatic sample injector and LC-10AT solvent delivery system. Shimadzu RF-20Axs fluorescence detector was used for derivatized sample extract analysis. The fluorescence detector was set at excitation and emission wavelengths of 385 nm and 515 nm, respectively. Signal output was collected digitally with Shimadzu Labsolution software and post run analysis was performed. […] The two mobile phases consisted of A: 100 mM ammonium acetate buffer (pH 4.5) and B: acetonitrile. Flow rate was maintained at 0.8 ml/min with a slow gradient elution: 0% B till 7 min, 20% B at 20 min, 20% B at 22 min, 50% B at 23 min, maintained at 50% B till 27 min, 0% B at 28 min and 7-10 min for column re-equilibration.
# The stability of CoA in PBS, serum-free medium, medium containing fetal calf (FCS) serum and in fetal calf serum was measured.
stability of 4′-phosphopantetheine in serum [6],Compound,spare respiratory capacity (reserve capacity) [1],effect on basal OCR in patient fibroblasts compared with healthy controls ([2]; MCAD and PA patient fibroblasts),"basal OCR levels ([2]; primary fibroblasts, relative to vehicle controls)",ability to survive starvation relative to control flies (AUC of cumulative survival) [3],ability to survive starvation relative to control flies (AUC of cumulative survival) ([3]; listed as (S)-acetyl-4′-phosphopantetheine),reduction of the observed developmental delay ([4]; 2 mM in drosophila media) [cumulative fly days],toxicity in drosophila ([4]; in vivo),cell count of dPANK/fbl RNAi treated S2 cells [5],histone (protein) acetylation of dPANK/fbl RNAi treated S2 cells [5],histone (protein) acetylation of dPANK/fbl RNAi treated S2 cells ([5]; listed as PpanSH),rescue of HoPan-induced decrease in cell count (Drosophila S2 cells; compound added to the medium),rescue of HoPan-induced histone acetylation defect (Drosophila S2 cells; compound added to the medium),"rescue of HoPan-induced histone acetylation defect (Drosophila S2 cells; compound added to the medium, listed as PpanSH)","intracellular levels of 4′-phosphopantetheine (Drosophila S2 cells; external supplementation, HPLC)",rescue of HoPan-induced impaired histone acetylation (HEK293 cells),rescue of HoPan-induced reduction in cell count (HEK293 cells),intracellular CoA level (HEK293 cells; HPLC)
,S-acetyl-4′-phosphopantetheine,improved spare respiratory capacity,observed more strongly,consistently elevated,partially recovered towards control levels,partially recovered,27,some toxicity,,,,,,,,,,
stable,CC(C)(COP(=O)(O)O)[C@@H](O)C(=O)NCCC(=O)NCCS [4′-phosphopantetheine],,,,,,,,rescued,rescued the histone acetylation defect,rescues acetylation defects,rescued,rescued the histone acetylation defect,rescues acetylation defects,significantly increased,rescued,rescued,rescued
